Experimental data from ChEMBL document CHEMBL3046882, “Synthesis and antibacterial activity against ralstonia solanacearum for novel hydrazone derivatives containing a pyridine moiety” (2012).

Key:
Ralstonia solanacearum [1] = experiment: Antibacterial activity against Ralstonia solanacearum assessed as growth inhibition at […] after 48 hrs by turbidimeter test; assay type: functional; parameters: dose or concentration left out as unconfirmed; conditions: for inhibition of growth: read-out: GI
Ralstonia solanacearum [2] = experiment: Antibacterial activity against Ralstonia solanacearum assessed as growth inhibition at […] after 48 hrs by turbidimeter test; assay type: functional; parameters: dose or concentration left out as unconfirmed; conditions: for inhibition of growth: read-out: GI

| Compound | inhibition of growth (Ralstonia solanacearum [1]) | inhibition of growth (Ralstonia solanacearum [2]) | growth inhibition (GI) (Ralstonia solanacearum [1]) | growth inhibition (GI) (Ralstonia solanacearum [2]) |
| --- | --- | --- | --- | --- |
| COc1ccc(OC)c(/C=N\NC(=O)c2cc(Cl)cc(C)c2NC(=O)c2cccnc2Cl)c1 | 1.9% | 25.2% | – | – |
| COc1cccc(/C=N\NC(=O)c2cc(Cl)cc(C)c2NC(=O)c2cccnc2Cl)c1OC | 0% | 40.3% | – | – |
| Cc1cc(Cl)cc(C(=O)N/N=C\c2ccc(Cl)c(Cl)c2)c1NC(=O)c1cccnc1Cl | 12.4% | 35% | – | – |
| Cc1cc(Cl)cc(C(=O)N/N=C\N(C)C)c1NC(=O)c1cccnc1Cl | 57.1% | 100% | – | – |
| Cc1cc(Cl)cc(C(=O)N/N=C\c2c(Cl)cccc2Cl)c1NC(=O)c1cccnc1Cl | 15.2% | 18.2% | – | – |
| Cc1cc(Cl)cc(C(=O)N/N=C\c2ccccc2Cl)c1NC(=O)c1cccnc1Cl | 0% | 6% | – | – |
| Cc1cc(Cl)cc(C(=O)N/N=C\c2ccc(C(C)(C)C)cc2)c1NC(=O)c1cccnc1Cl | 18.2% | 39% | – | – |
| CC/C=N\NC(=O)c1cc(Cl)cc(C)c1NC(=O)c1cccnc1Cl | 0% | 5% | – | – |
| Cc1cc(Cl)cc(C(=O)N/N=C\c2cccc(C(F)(F)F)c2)c1NC(=O)c1cccnc1Cl | 33.3% | 80.9% | – | – |
| Cc1cc(Cl)cc(C(=O)N/N=C\c2ccc(F)cc2)c1NC(=O)c1cccnc1Cl | 1.1% | 5% | – | – |
| COc1ccc(/C=N\NC(=O)c2cc(Cl)cc(C)c2NC(=O)c2cccnc2Cl)c(OC)c1 | 0% | 36.1% | – | – |
| COPPER HYDROXIDE | – | – | 100% | 100% |
